From patent publication US11564909B2, “Methods and compositions for oral pilocarpine liquid” (ROMEG Therapeutics LLC, priority 2020, dated 2023)

Assays:
Caco-2 cells = assay: in vitro
Procedure: (§1) The objective of this study was to evaluate the bidirectional Caco-2 permeability of three formulations of test article Pilocarpine at three pH levels (pH 5.7, 6.5, 7.4) using calibration curve quantitation.
(§2) Samples were analyzed by LC/MS/MS using an Waters Xevo TQ mass spectrometer coupled with an Acuity HPLC and a CTC PAL chilled autosampler, all controlled by MassLynx software (Waters). After separation on a C18 reverse phase (Waters Acquity HSS T3 2.1×50 mm […]) using an acetonitrile-water gradient system, peaks were analyzed by mass spectrometry (MS) using ESI ionization in MRM mode.
(§3) Tables 16-17 show the HPLC gradients used and the experiment conditions of the Caco-2 permeability test, respectively.
(§4) Caco-2 cells grown in tissue culture flasks were trypsinized, suspended in medium, and the suspensions were applied to wells of a Millipore 96 well plate. The cells were allowed to grow and differentiate for three weeks, feeding at 2-day intervals.
(§5) For Apical to Basolateral (A→B) permeability, the test article was added to the apical (A) side and amount of permeation was determined on the basolateral (B) side; for Basolateral to Apical (B→A) permeability, the test article was added to the B side and the amount of permeation was determined on the A side. […] Caco-2 cells were incubated with test articles in these buffers for 2 hours, and at the end of the assay, donor and receiver side solution samples were collected, quenched by 100% methanol containing an internal standard and centrifuged at 5000 rpm for 10 minutes at 4° C. Following centrifugation, the supernatant for donor and receiver side samples were analyzed by LC-MS/MS.
(§6) Data is expressed as permeability (Papp):
(§7) [formula] dQ/dt is rate of permeation, C0 is initial concentration of test article, and A is the area of monolayer.
(§8) In bidirectional permeability studies, Efflux Ratio (Re) is also calculated:
(§9) [formula] Re>2 indicates a potential substrate for P-gp or other active efflux transporters. The donor, dosing and receiver side sample concentrations were calculated based on the calibration curve prepared in buffer matrix in the range of 1-20,000 nM.

in vitro = settings: human, Caco-2
Procedure: as §1, §2, §3, §4, §5, §6, §7, §8, §9

Comments (permeability class) (Caco-2 cells)	Papp A→B at 2 h, 10 μM (in vitro) [×10⁻⁶ cm/s]	Papp B→A at 2 h, 10 μM (in vitro) [×10⁻⁶ cm/s]	efflux ratio at 2 h, 10 μM (in vitro)	BCS permeability classification (Caco-2 cells)	Structure (SMILES)
High permeability	19.4	42.7	2.22	–	COCCc1ccc(OCC(O)CNC(C)C)cc1 (stereo not drawn) [Metoprolol]
Low permeability	0.585	3.13	5.41	–	CNC(=C[N+](=O)[O-])NCCSCc1ccc(CN(C)C)o1 [Ranitidine]
–	–	–	–	high permeability	CC[C@@H]1C(=O)OC[C@@H]1Cc1cncn1C [pilocarpine, (3S,4R)-3-Ethyl-4-((1-methyl-1H-imidazol-5-yl)methyl)dihydrofuran-2(3H)-one]
